Test results taken from patent US20170152226A1, “FUNCTIONALISED AND SUBSTITUTED INDOLES AS ANTI-CANCER AGENTS” (Novogen Ltd., priority 2014, published 2017).

Columns and labels:
Format in all cases: cell-based
[1] = system: Tpm3.1-containing actin filaments in SK-N-SH neuroblastoma cells; experiment: Microfilament disruption assay, γ9d staining; conditions: 0-40 μM, 24 hours post treatment
Experimental: (§1) FIG. 2: Imaging and quantitation of actin filaments in SK-N-SH neuroblastoma cells treated with compound (A) 3504, (B) 3507 and (C) 3516. Cells were stained with γ9d (sheep polycolonal, 1:100) followed by 488-conjugated secondary (1:1000) and DAPI to visualize the Tpm3.1 containing filament bundles and the nucleus, respectively. Shown in the top panel is a representative grey scale immunofluorescent image from control (vehicle alone), 5 μM and 10 μM treated cells. […] The coloured lines indicate the detected actin filaments. Also shown is the quantitation of cell number, filament number/cell and filament number/cell area (μM^2). […]
(§2) The ability of compounds 3504, 3507 and 3516 to disrupt the total actin cytoskeleton (FIG. 1) and to specifically target Tpm3.1-containing actin filaments (FIG. 2) was assessed in vitro using the microfilament disruption assay.
(§3) Briefly, SK-N-SH neuroblastoma cells were seeded at 1800 cells/well in a 384 Perkin Elmer High Content Imaging “View” plate and left to plate down 24 hours prior to treatment. […] Images were then exported and changes in the organization and numbers of actin filaments within the cell were quantitated using a linear feature detection algorithm developed by the CSIRO (Vindin et al., 2014). […] It is these “ridge lines” that correspond to actin filament bundles and allow us to quantitate the number of filaments per cell.

[2] = system: total actin cytoskeleton in SK-N-SH neuroblastoma cells; experiment: Microfilament disruption assay, phalloidin staining; conditions: 0-40 μM, 24 hours post treatment
Experimental: as §1, with “1:” for “2:”, “488-Atto-Phallodin” for “γ9d (sheep polycolonal, 1:100) followed by 488-conjugated secondary (1:1000)”, “actin” for “Tpm3.1 containing”
as §2, §3

A549 = experiment: Anti-proliferative activity, cell-titre luminescent viability assay; conditions: Homo sapiens, A549, 72 h, 0.03, 0.3, 3 and 30 μM, linear regression of semi-log plots, read-out: IC50 Lung (NSLC) A549
Procedure, shortened: (§4)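 Cells attached for 24 h at 37° C, 5% CO2, then received compound (0.03, 0.3, 3, 30 μM, or 0.1–30 μM in six steps) for 72 h. Viability was read by cell-titre luminescence after 30 min and normalized to untreated or vehicle control. IC50 came from linear regression of semi-log plots, or EC50 from variable-slope sigmoidal nonlinear regression, depending on compound.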

SK-Mel-28 = experiment: as above; conditions: Homo sapiens, SK-MEL-28; 72 hours; 0.03, 0.3, 3 and 30 μM; linear regression of semi-log plots; read-out: IC50 Melanoma SK-Mel-28
Procedure, shortened: as §4

CaCo2 = experiment: as above; conditions: Homo sapiens, Caco-2, 72 h, 0.03, 0.3, 3 and 30 μM, linear regression of semi-log plots, read-out: IC50 Colorectal CaCo2
Procedure, shortened: as §4

MDA-MB-231 = experiment: as above; conditions: Homo sapiens, MDA-MB-231, 72 h, 0.03, 0.3, 3 and 30 μM, linear regression of semi-log plots, read-out: IC50 Breast MDA-MB-231
Procedure, shortened: as §4

SK-N-SH = experiment: as above; conditions: Homo sapiens, SK-N-SH, 72 h, 0.03, 0.3, 3 and 30 μM, linear regression of semi-log plots, read-out: IC50 Neuroblastoma SK-N-SH
Procedure, shortened: as §4

PC3 = experiment: as above; conditions: Homo sapiens, PC-3, 72 h, 0.03, 0.3, 3 and 30 μM, linear regression of semi-log plots, read-out: IC50 Prostate PC3
Procedure, shortened: as §4

DU145 = experiment: as above; conditions: Homo sapiens, DU-145, 72 h, 0.03, 0.3, 3 and 30 μM, linear regression of semi-log plots, read-out: IC50 Prostate DU145
Procedure, shortened: as §4

Cc1c(C)n(CCCN2CCN(C)CC2)c2ccc(Nc3cccc(C(=O)N4CCN(CCc5cccc(F)c5)CC4)c3)cc12 [Compound 3516, (3-((2,3-dimethyl-1-(3-(4-methylpiperazin-1-yl)propyl)-1H-indol-5-yl)amino)phenyl)(4-(3-fluorophenethyl)piperazin-1-yl)methanone]
disruption of Tpm3.1-containing actin filaments [1]: in a dose-dependent manner | disruption of the total actin cytoskeleton [2]: in a dose-dependent manner | IC50 (A549): 2200 nM | IC50 (SK-Mel-28): 2600 nM | IC50 (CaCo2): 2100 nM | IC50 (MDA-MB-231): 1300 nM | IC50 (SK-N-SH): 1400 nM | IC50 (PC3): 3500 nM | IC50 (DU145): 3000 nM
